Source: PubChem BioAssay AID1963960 (Molecular Pharmacology Branch, DTP, NCI, 2024)

Test system: MDA-MB-468 spheroids with HUVEC/MSC, viability
Test: Anticancer human tumor MDA-MB-468 cell line growth inhibition [PI3K];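 further: spheroids exposed to agents for seven days before readout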;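 on viability, T/C: 100% = DMSO vehicle control viability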
Conditions: for IC50: curve of first compound; for viability, T/C: stronger effect = lower value
How it was run: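 Combination activity was assessed by viability in multicellular tumor spheroids carrying HUVEC and MSC components. Agents were tested with PI3K inhibitors from a Cmax-based top dose (or 10 microM) downward in half-log increments.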

[1] = second compound 0.0316 µM, first compound 0.0316 µM
[2] = second compound 0.0316 µM, first compound 0.1 µM
[3] = second compound 0.0316 µM, first compound 0.316 µM
[4] = second compound 0.0316 µM, first compound 1 µM
[5] = second compound 0.0316 µM, first compound 3.16 µM
[6] = second compound 0.0316 µM, first compound 10 µM
[7] = second compound 0.1 µM, first compound 0.0316 µM
[8] = second compound 0.1 µM, first compound 0.1 µM
[9] = second compound 0.1 µM, first compound 0.316 µM
[10] = second compound 0.1 µM, first compound 1 µM
[11] = second compound 0.1 µM, first compound 3.16 µM
[12] = second compound 0.1 µM, first compound 10 µM
[13] = second compound 0.316 µM, first compound 0.0316 µM
[14] = second compound 0.316 µM, first compound 0.1 µM
[15] = second compound 0.316 µM, first compound 0.316 µM
[16] = second compound 0.316 µM, first compound 1 µM
[17] = second compound 0.316 µM, first compound 3.16 µM
[18] = second compound 0.316 µM, first compound 10 µM
[19] = second compound 1 µM, first compound 0.0316 µM
[20] = second compound 1 µM, first compound 0.1 µM
[21] = second compound 1 µM, first compound 0.316 µM
[22] = second compound 1 µM, first compound 1 µM
[23] = second compound 1 µM, first compound 3.16 µM
[24] = second compound 1 µM, first compound 10 µM
[25] = second compound 3.16 µM, first compound 0.0316 µM
[26] = second compound 3.16 µM, first compound 0.1 µM
[27] = second compound 3.16 µM, first compound 0.316 µM
[28] = second compound 3.16 µM, first compound 1 µM
[29] = second compound 3.16 µM, first compound 3.16 µM
[30] = second compound 3.16 µM, first compound 10 µM
[31] = second compound 10 µM, first compound 0.0316 µM
[32] = second compound 10 µM, first compound 0.1 µM
[33] = second compound 10 µM, first compound 0.316 µM
[34] = second compound 10 µM, first compound 1 µM
[35] = second compound 10 µM, first compound 3.16 µM
[36] = second compound 10 µM, first compound 10 µM
[37] = second compound 0.0316 µM, first compound 0.00316 µM
[38] = second compound 0.0316 µM, first compound 0.01 µM
[39] = second compound 0.1 µM, first compound 0.00316 µM
[40] = second compound 0.1 µM, first compound 0.01 µM
[41] = second compound 0.316 µM, first compound 0.00316 µM
[42] = second compound 0.316 µM, first compound 0.01 µM
[43] = second compound 1 µM, first compound 0.00316 µM
[44] = second compound 1 µM, first compound 0.01 µM
[45] = second compound 3.16 µM, first compound 0.00316 µM
[46] = second compound 3.16 µM, first compound 0.01 µM
[47] = second compound 10 µM, first compound 0.00316 µM
[48] = second compound 10 µM, first compound 0.01 µM

CC(C)NCC(C(=O)N1CCN(c2ncnc3c2C(C)CC3O)CC1)c1ccc(Cl)cc1 (stereo not given) + CC(Nc1ncnc2nc[nH]c12)c1cc2cccc(Cl)c2c(=O)n1-c1ccccc1
IC50 (second compound 0.0316 µM): 1170 nM
IC50 (second compound 0.1 µM): 1010 nM
IC50 (second compound 0.316 µM): 1220 nM
IC50 (second compound 1 µM): 654 nM
IC50 (second compound 3.16 µM): 260 nM
IC50 (second compound 10 µM): < 31.6 nM
viability, T/C [1]: 97.6%
viability, T/C [2]: 86.2%
viability, T/C [3]: 76.4%
viability, T/C [4]: 50.4%
viability, T/C [5]: 36%
viability, T/C [6]: 25.7%
viability, T/C [7]: 78.1%
viability, T/C [8]: 87.9%
viability, T/C [9]: 77.5%
viability, T/C [10]: 48.3%
viability, T/C [11]: 38.5%
viability, T/C [12]: 25.8%
viability, T/C [13]: 73.1%
viability, T/C [14]: 80.2%
viability, T/C [15]: 76.9%
viability, T/C [16]: 51.2%
viability, T/C [17]: 38.5%
viability, T/C [18]: 27.4%
viability, T/C [19]: 72.2%
viability, T/C [20]: 64.9%
viability, T/C [21]: 59.1%
viability, T/C [22]: 46.4%
viability, T/C [23]: 29.9%
viability, T/C [24]: 27%
viability, T/C [25]: 57.5%
viability, T/C [26]: 57.7%
viability, T/C [27]: 47%
viability, T/C [28]: 40.8%
viability, T/C [29]: 32.6%
viability, T/C [30]: 25.6%
viability, T/C [31]: 46.4%
viability, T/C [32]: 41.2%
viability, T/C [33]: 42.2%
viability, T/C [34]: 34.7%
viability, T/C [35]: 26.4%
viability, T/C [36]: 21.4%

CCN1CCN(Cc2ccc(Nc3ncc(F)c(-c4cc(F)c5nc(C)n(C(C)C)c5c4)n3)nc2)CC1 + CC(Nc1ncnc2nc[nH]c12)c1cc2cccc(Cl)c2c(=O)n1-c1ccccc1
IC50 (second compound 0.0316 µM): > 1000 nM
IC50 (second compound 0.1 µM): > 1000 nM
IC50 (second compound 0.316 µM): > 1000 nM
IC50 (second compound 1 µM): > 1000 nM
IC50 (second compound 3.16 µM): > 1000 nM
IC50 (second compound 10 µM): < 3.16 nM
viability, T/C [37]: 98.7%
viability, T/C [38]: 89.8%
viability, T/C [1]: 88.1%
viability, T/C [2]: 88.1%
viability, T/C [3]: 85.3%
viability, T/C [4]: 67.9%
viability, T/C [39]: 85.3%
viability, T/C [40]: 92.7%
viability, T/C [7]: 94.1%
viability, T/C [8]: 93.7%
viability, T/C [9]: 79.3%
viability, T/C [10]: 60.1%
viability, T/C [41]: 78.3%
viability, T/C [42]: 81.1%
viability, T/C [13]: 82.3%
viability, T/C [14]: 65.5%
viability, T/C [15]: 81%
viability, T/C [16]: 56.6%
viability, T/C [43]: 58.2%
viability, T/C [44]: 70%
viability, T/C [19]: 69.5%
viability, T/C [20]: 61.7%
viability, T/C [21]: 56.9%
viability, T/C [22]: 51.5%
viability, T/C [45]: 60.9%
viability, T/C [46]: 57.4%
viability, T/C [25]: 57.9%
viability, T/C [26]: 53.7%
viability, T/C [27]: 55.1%
viability, T/C [28]: 48.1%
viability, T/C [47]: 40.9%
viability, T/C [48]: 42.4%
viability, T/C [31]: 41%
viability, T/C [32]: 40%
viability, T/C [33]: 37.8%
viability, T/C [34]: 31.8%

C[C@@H](NC(=O)c1ncnc(N)c1Cl)c1ncc(C(=O)Nc2cc(C(F)(F)F)c(Cl)cn2)s1 + CC(Nc1ncnc2nc[nH]c12)c1cc2cccc(Cl)c2c(=O)n1-c1ccccc1
IC50 (second compound 0.0316 µM): > 10000 nM
IC50 (second compound 0.1 µM): > 10000 nM
IC50 (second compound 0.316 µM): > 10000 nM
IC50 (second compound 1 µM): > 10000 nM
IC50 (second compound 3.16 µM): > 10000 nM
IC50 (second compound 10 µM): < 31.6 nM
viability, T/C [1]: 107%
viability, T/C [2]: 114%
viability, T/C [3]: 92.5%
viability, T/C [4]: 109%
viability, T/C [5]: 91.3%
viability, T/C [6]: 94.9%
viability, T/C [7]: 83%
viability, T/C [8]: 94.3%
viability, T/C [9]: 93.3%
viability, T/C [10]: 89%
viability, T/C [11]: 93.5%
viability, T/C [12]: 83.7%
viability, T/C [13]: 84.8%
viability, T/C [14]: 76.8%
viability, T/C [15]: 83.1%
viability, T/C [16]: 82%
viability, T/C [17]: 75.5%
viability, T/C [18]: 83.7%
viability, T/C [19]: 70%
viability, T/C [20]: 65.8%
viability, T/C [21]: 75.3%
viability, T/C [22]: 81.8%
viability, T/C [23]: 75.2%
viability, T/C [24]: 64.5%
viability, T/C [25]: 61.8%
viability, T/C [26]: 60.2%
viability, T/C [27]: 63.7%
viability, T/C [28]: 55.7%
viability, T/C [29]: 61.8%
viability, T/C [30]: 58.9%
viability, T/C [31]: 42.3%
viability, T/C [32]: 40.6%
viability, T/C [33]: 46.1%
viability, T/C [34]: 53%
viability, T/C [35]: 41.7%
viability, T/C [36]: 39.2%

Cn1ncc(Cl)c1-c1cc(C(=O)NC(CN)Cc2cccc(F)c2)sc1Cl (stereo not given) + CC(Nc1ncnc2nc[nH]c12)c1cc2cccc(Cl)c2c(=O)n1-c1ccccc1
IC50 (second compound 0.0316 µM): 293 nM
IC50 (second compound 0.1 µM): 338 nM
IC50 (second compound 0.316 µM): 331 nM
IC50 (second compound 1 µM): 242 nM
IC50 (second compound 3.16 µM): 44.2 nM
IC50 (second compound 10 µM): < 31.6 nM
viability, T/C [1]: 83.2%
viability, T/C [2]: 73.1%
viability, T/C [3]: 45.6%
viability, T/C [4]: 32.3%
viability, T/C [5]: 26%
viability, T/C [6]: 17.7%
viability, T/C [7]: 84.6%
viability, T/C [8]: 65.5%
viability, T/C [9]: 50.3%
viability, T/C [10]: 35.9%
viability, T/C [11]: 29.7%
viability, T/C [12]: 16.1%
viability, T/C [13]: 68.7%
viability, T/C [14]: 63.4%
viability, T/C [15]: 51.1%
viability, T/C [16]: 33.9%
viability, T/C [17]: 29.1%
viability, T/C [18]: 18.6%
viability, T/C [19]: 58.4%
viability, T/C [20]: 60.1%
viability, T/C [21]: 47%
viability, T/C [22]: 32.9%
viability, T/C [23]: 27.8%
viability, T/C [24]: 17.9%
viability, T/C [25]: 51.7%
viability, T/C [26]: 45.4%
viability, T/C [27]: 40.8%
viability, T/C [28]: 32.6%
viability, T/C [29]: 25.9%
viability, T/C [30]: 20.2%
viability, T/C [31]: 40.4%
viability, T/C [32]: 41.6%
viability, T/C [33]: 36.3%
viability, T/C [34]: 28%
viability, T/C [35]: 23.8%
viability, T/C [36]: 15.5%

Cn1ncnc1[C@H]1c2n[nH]c(=O)c3cc(F)cc(c23)N[C@@H]1c1ccc(F)cc1 + CC(Nc1ncnc2nc[nH]c12)c1cc2cccc(Cl)c2c(=O)n1-c1ccccc1
IC50 (second compound 0.0316 µM): > 100 nM
IC50 (second compound 0.1 µM): > 100 nM
IC50 (second compound 0.316 µM): 96.2 nM
IC50 (second compound 1 µM): 72.5 nM
IC50 (second compound 3.16 µM): 37 nM
IC50 (second compound 10 µM): < 0.316 nM
viability, T/C (second compound 0.0316 µM, first compound 0.000316 µM): 84.5%
viability, T/C (second compound 0.0316 µM, first compound 0.001 µM): 90.7%
viability, T/C [37]: 86.9%
viability, T/C [38]: 78.1%
viability, T/C [1]: 68.1%
viability, T/C [2]: 51.2%
viability, T/C (second compound 0.1 µM, first compound 0.000316 µM): 78.3%
viability, T/C (second compound 0.1 µM, first compound 0.001 µM): 95.1%
viability, T/C [39]: 85%
viability, T/C [40]: 66%
viability, T/C [7]: 65.3%
viability, T/C [8]: 51.7%
viability, T/C (second compound 0.316 µM, first compound 0.000316 µM): 73.2%
viability, T/C (second compound 0.316 µM, first compound 0.001 µM): 74.5%
viability, T/C [41]: 73%
viability, T/C [42]: 69.9%
viability, T/C [13]: 64%
viability, T/C [14]: 49.5%
viability, T/C (second compound 1 µM, first compound 0.000316 µM): 59.3%
viability, T/C (second compound 1 µM, first compound 0.001 µM): 74%
viability, T/C [43]: 60.1%
viability, T/C [44]: 64.5%
viability, T/C [19]: 57.8%
viability, T/C [20]: 46.8%
viability, T/C (second compound 3.16 µM, first compound 0.000316 µM): 55.5%
viability, T/C (second compound 3.16 µM, first compound 0.001 µM): 52.1%
viability, T/C [45]: 53.4%
viability, T/C [46]: 52.8%
viability, T/C [25]: 51.9%
viability, T/C [26]: 38.7%
viability, T/C (second compound 10 µM, first compound 0.000316 µM): 39.4%
viability, T/C (second compound 10 µM, first compound 0.001 µM): 37.8%
viability, T/C [47]: 40.6%
viability, T/C [48]: 36.9%
viability, T/C [31]: 35.2%
viability, T/C [32]: 26.9%
